Test results reported in patent US9149475B2, “Protein kinase C inhibitors and uses thereof” (Rigel Pharmaceuticals, Inc., priority 2009, dated 2015).

Tested on: Human primary T cells
Assay: IL-2 ELISA, human primary T cell, anti-CD3+CD28+ (whole cell assay)
Type: cell-based
Details: human primary T cells stimulated with anti-CD3 + anti-CD28, 24 hours
How it was run: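 PBMC-derived T cells, pre-expanded on αCD3/αCD28 with IL-2 and then washed free of IL-2, were preincubated with compound for 1 hr at 37° C (100,000 cells/well). They were then stimulated on 1 μg/ml αCD3 plus 5 μg/ml αCD28 for 24 h, and supernatant IL-2 was measured by ELISA. The counter-assay used 0.5 ng/ml PMA plus 0.1 μM ionomycin instead.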

## CCOc1ccc(Nc2ncc(F)c(NC3CC(C)(C)N(C)C(C)(C)C3)n2)cc1OC(F)F [Compound I-109, N2-(3-(difluoromethoxy)-4-ethoxyphenyl)-5-fluoro-N4-(1,2,2,6,6-pentamethylpiperidin-4-yl)pyrimidine-2,4-diamine]
Homo sapiens, T-cell, 24 h
  IC50: < 250 nM

## COc1cc(NC(C)=O)cc(Nc2ncc(F)c(NC3CC(C)(C)N(C)C(C)(C)C3)n2)c1 [Compound I-110, N2-(3-Acetylamino-5-methoxyphenyl)-5-fluoro-N4-(1,2,2,6,6-pentamethylpiperidin-4-yl)-2,4-pyrimidinediamine]
Homo sapiens, T-cell, 24 h
  IC50: 500 to 1000 nM

## Cc1nnnn1-c1cc(Nc2ncc(F)c(NC3CC(C)(C)N(C)C(C)(C)C3)n2)cnc1O [Compound I-112, 5-(4-(1,2,2,6,6-pentamethylpiperidin-4-ylamino)-5-fluoropyrimidin-2-ylamino)-3-(5-methyl-1H-tetrazol-1-yl)pyridin-2-ol]
Homo sapiens, T-cell, 24 h
  IC50: > 1000 nM

## Cc1nnnn1-c1cc(Nc2ncc(F)c(NC3CC(C)(C)N(C)C(C)(C)C3)n2)cnc1OC(C)C [Compound I-113, 5-fluoro-N2-(6-isopropoxy-5-(5-methyl-1H-tetrazol-1-yl)pyridin-3-yl)-N4-(1,2,2,6,6-pentamethylpiperidin-4-yl)pyrimidine-2,4-diamine]
Homo sapiens, T-cell, 24 h
  IC50: < 250 nM

## Cc1nnnn1-c1cc(Nc2ncc(F)c(NC3CC(C)(C)NC(C)(C)C3)n2)cnc1OC(C)C [Compound I-114, 5-fluoro-N2-(6-isopropoxy-5-(5-methyl-1H-tetrazol-1-yl)pyridin-3-yl)-N4-(2,2,6,6-tetramethylpiperidin-4-yl)pyrimidine-2,4-diamine]
Homo sapiens, T-cell, 24 h
  IC50: < 250 nM

## Cc1ccc(C)n1-c1cc(Nc2ncc(F)c(NC3CC(C)(C)N(C)C(C)(C)C3)n2)cnc1OC(C)C [Compound I-115, 5-fluoro-N2-(6-isopropoxy-5-(2,5-dimethyl-1H-pyrrol-1-yl)pyridin-3-yl)-N4-(1,2,2,6,6-pentamethylpiperidin-4-yl)pyrimidine-2,4-diamine]
Homo sapiens, T-cell, 24 h
  IC50: 500 to 1000 nM

## Cc1ccc(C)n1-c1cc(Nc2ncc(F)c(NC3CC(C)(C)NC(C)(C)C3)n2)cnc1OC(C)C [Compound I-116, 5-fluoro-N2-(6-isopropoxy-5-(2,5-dimethyl-1H-pyrrol-1-yl)pyridin-3-yl)-N4-(2,2,6,6-tetramethylpiperidin-4-yl)pyrimidine-2,4-diamine]
Homo sapiens, T-cell, 24 h
  IC50: 500 to 1000 nM

## CCOc1ncc(Nc2ncc(F)c(NC3CC(C)(C)N(C)C(C)(C)C3)n2)cc1OC(F)F [Compound I-117, N2-(5-(difluoromethoxy)-6-ethoxypyridin-3-yl)-5-fluoro-N4-(1,2,2,6,6-pentamethylpiperidin-4-yl)pyrimidine-2,4-diamine]
Homo sapiens, T-cell, 24 h
  IC50: 250 to 500 nM

## CCOc1ncc(Nc2ncc(F)c(NC3CC(C)(C)NC(C)(C)C3)n2)cc1OC(F)F [Compound I-118, N2-(5-(difluoromethoxy)-6-ethoxypyridin-3-yl)-5-fluoro-N4-(2,2,6,6-tetramethylpiperidin-4-yl)pyrimidine-2,4-diamine]
Homo sapiens, T-cell, 24 h
  IC50: 250 to 500 nM

## CN1C(C)(C)CC(Nc2nc(Nc3ccc(OCCN4CCOCC4)c(C(F)(F)F)c3)ncc2F)CC1(C)C [Compound I-119, N2-(4-(2-morpholinoethoxy)-3-(trifluoromethyl)phenyl)-5-fluoro-N4-(1,2,2,6,6-pentamethylpiperidin-4-yl)pyrimidine-2,4-diamine]
Homo sapiens, T-cell, 24 h
  IC50: 250 to 500 nM

## CC1(C)CC(Nc2nc(Nc3ccc(OCCN4CCOCC4)c(OC(F)F)c3)ncc2F)CC(C)(C)N1 [Compound I-120, N2-(4-(2-morpholinoethoxy)-3-(difluoromethoxy)phenyl)-5-fluoro-N4-(2,2,6,6-tetramethylpiperidin-4-yl)pyrimidine-2,4-diamine]
Homo sapiens, T-cell, 24 h
  IC50: > 1000 nM

## CN1C(C)(C)CC(Nc2nc(Nc3ccc(OCCN4CCOCC4)c(OC(F)F)c3)ncc2F)CC1(C)C [Compound I-121, N2-(4-(2-morpholinoethoxy)-3-(difluoromethoxy)phenyl)-5-fluoro-N4-(1,2,2,6,6-pentamethylpiperidin-4-yl)pyrimidine-2,4-diamine]
Homo sapiens, T-cell, 24 h
  IC50: 500 to 1000 nM

## CC1(C)CC(Nc2nc(Nc3ccc(OC(C)(C)CN4CCOCC4)c(OC(F)F)c3)ncc2F)CC(C)(C)N1 [Compound I-122, N2-(4-(2-methyl-1-morpholinopropan-2-yloxy)-3-(difluoromethoxy)phenyl)-5-fluoro-N4-(2,2,6,6-tetramethylpiperidin-4-yl)pyrimidine-2,4-diamine]
Homo sapiens, T-cell, 24 h
  IC50: > 1000 nM

## CN1C(C)(C)CC(Nc2nc(Nc3ccc(OC(C)(C)CN4CCOCC4)c(OC(F)F)c3)ncc2F)CC1(C)C [Compound I-123, N2-(4-(2-methyl-1-morpholinopropan-2-yloxy)-3-(difluoromethoxy)phenyl)-5-fluoro-N4-(1,2,2,6,6-pentamethylpiperidin-4-yl)pyrimidine-2,4-diamine]
Homo sapiens, T-cell, 24 h
  IC50: < 250 nM

## CC1(C)CC(Nc2nc(Nc3ccc(OC(C)(C)CN4CCCC4)c(OC(F)F)c3)ncc2F)CC(C)(C)N1 [Compound I-124, N2-(4-(2-methyl-1-(pyrrolidin-1-yl)propan-2-yloxy)-3-(difluoromethoxy)phenyl)-5-fluoro-N4-(2,2,6,6-tetramethylpiperidin-4-yl)pyrimidine-2,4-diamine]
Homo sapiens, T-cell, 24 h
  IC50: 500 to 1000 nM

## CC1(C)CC(Nc2nc(Nc3ccc(F)c(-n4cnnn4)c3)ncc2C(N)=O)CC(C)(C)N1 [Compound I-125, 5-aminocarbonyl-N2-[4-fluoro-3-(1H-tetrazol-1-yl)]phenyl-N4-(2,2,6,6-tetramethylpiperidin-4-yl)-2,4-pyrimidinediamine]
  IC50: 250 to 500 nM

## CC(C)Oc1ncc(Nc2ncc(F)c(NC3CC(C)(C)N(C)C(C)(C)C3)n2)cc1-c1nnnn1C [Compound I-126, 5-fluoro-N2-(6-isopropoxy-5-(1-methyl-1H-tetrazol-5-yl)pyridin-3-yl)-N4-(1,2,2,6,6-pentamethylpiperidin-4-yl)pyrimidine-2,4-diamine]
Homo sapiens, T-cell, 24 h
  IC50: < 250 nM

## CC(C)Oc1ncc(Nc2ncc(F)c(NC3CC(C)(C)NC(C)(C)C3)n2)cc1-c1nnnn1C [Compound I-127, 5-fluoro-N2-(6-isopropoxy-5-(1-methyl-1H-tetrazol-5-yl)pyridin-3-yl)-N4-(2,2,6,6-tetramethylpiperidin-4-yl)pyrimidine-2,4-diamine]
Homo sapiens, T-cell, 24 h
  IC50: 250 to 500 nM

## CC(C)Oc1ncc(Nc2ncc(C(N)=O)c(NC3CC(C)(C)N(C)C(C)(C)C3)n2)cc1-c1nnnn1C [Compound I-128, 2-(6-isopropoxy-5-(1-methyl-1H-tetrazol-5-yl)pyridin-3-ylamino)-4-(1,2,2,6,6-pentamethylpiperidin-4-ylamino)pyrimidine-5-carboxamide]
Homo sapiens, T-cell, 24 h
  IC50: > 1000 nM

## CC(C)Oc1ncc(Nc2ncc(C#N)c(NC3CC(C)(C)N(C)C(C)(C)C3)n2)cc1-c1nnnn1C [Compound I-129, 2-(6-isopropoxy-5-(1-methyl-1H-tetrazol-5-yl)pyridin-3-ylamino)-4-(1,2,2,6,6-pentamethylpiperidin-4-ylamino)pyrimidine-5-carbonitrile]
Homo sapiens, T-cell, 24 h
  IC50: 500 to 1000 nM

## CC(C)Oc1ncc(Nc2ncc(C#N)c(NC3CC(C)(C)NC(C)(C)C3)n2)cc1-c1nnnn1C [Compound I-130, 2-(6-isopropoxy-5-(1-methyl-1H-tetrazol-5-yl)pyridin-3-ylamino)-4-(2,2,6,6-tetramethylpiperidin-4-ylamino)pyrimidine-5-carbonitrile]
Homo sapiens, T-cell, 24 h
  IC50: > 1000 nM
